Reference: paper PMC8754100, “Role of Hepatocyte- and Macrophage-Specific PPARγ in Hepatotoxicity Induced by Diethylhexyl Phthalate in Mice” (Environmental Health Perspectives, 2022)
pKd: −log10 of the molar value.

Molecular target: T1, PPARα (Homo sapiens, UniProt Q07869)
T1 construct: gene PPARA
T1 sequence (Q07869 1-468): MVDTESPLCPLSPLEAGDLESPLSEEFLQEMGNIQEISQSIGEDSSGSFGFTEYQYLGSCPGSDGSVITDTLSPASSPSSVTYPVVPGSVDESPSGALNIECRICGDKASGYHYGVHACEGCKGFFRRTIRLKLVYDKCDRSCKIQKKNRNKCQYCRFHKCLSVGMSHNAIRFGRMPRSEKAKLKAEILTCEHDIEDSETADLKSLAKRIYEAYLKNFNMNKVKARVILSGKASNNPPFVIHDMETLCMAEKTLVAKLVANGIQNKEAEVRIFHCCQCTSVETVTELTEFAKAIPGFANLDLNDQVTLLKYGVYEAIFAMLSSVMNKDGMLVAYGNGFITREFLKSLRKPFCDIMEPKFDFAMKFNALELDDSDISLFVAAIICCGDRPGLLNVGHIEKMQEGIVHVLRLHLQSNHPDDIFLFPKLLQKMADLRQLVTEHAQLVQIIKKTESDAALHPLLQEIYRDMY
Assay: SPR (OpenSPR) with recombinant human PPARα immobilized by amine coupling
Assay type: binding

Compound: CCCCC(CC)COC(=O)c1ccccc1C(=O)O (stereo not shown) [MEHP, mono(2-ethylhexyl) phthalate]
- pKd: 3.20
